PubChem BioAssay (NCI)
Where “and” joins values, the source holds several entries; their conditions need not be identical. Equal entries are not always repeated.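 How tested: cells in 96-well plates exposed to compound for 48 hours at five concentrations. GI50 marks 50% less growth. TGI is the concentration that stops growth completely.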

Columns and labels:
Assay in all cases: growth of human tumour cells (NCI), 48 h
CCRF-CEM leukemia = system: CCRF-CEM leukemia
SW-620 colon = system: SW-620 colon
OVCAR-5 ovarian = system: OVCAR-5 ovarian
K-562 leukemia = system: K-562 leukemia
HT29 colon = system: HT29 colon
NCI-H23 lung = system: NCI-H23 lung
HCT-116 colon = system: HCT-116 colon
SK-MEL-5 melanoma = system: SK-MEL-5 melanoma
ACHN renal = system: ACHN renal
MCF7 breast = system: MCF7 breast

| SMILES | TGI (CCRF-CEM leukemia) | TGI (SW-620 colon) [µM] | TGI (OVCAR-5 ovarian) [µM] | TGI (K-562 leukemia) [µM] | TGI (HT29 colon) [µM] | TGI (NCI-H23 lung) [µM] | TGI (HCT-116 colon) [µM] | TGI (SK-MEL-5 melanoma) [µM] | TGI (ACHN renal) [µM] | TGI (MCF7 breast) [µM] | GI50 (CCRF-CEM leukemia) | GI50 (SW-620 colon) [µM] | GI50 (OVCAR-5 ovarian) [µM] | GI50 (K-562 leukemia) | GI50 (HT29 colon) [µM] | GI50 (NCI-H23 lung) [µM] | GI50 (HCT-116 colon) [µM] | GI50 (SK-MEL-5 melanoma) [µM] | GI50 (ACHN renal) [µM] | GI50 (MCF7 breast) [µM] |
| --- | --- | --- | --- | --- | --- | --- | --- | --- | --- | --- | --- | --- | --- | --- | --- | --- | --- | --- | --- | --- |
| COc1ccccc1NC(=O)C(=O)Cc1cnc2ccccc2n1 | > 100 µM | > 100 | > 100 | > 100 | > 100 | > 100 | > 100 | > 100 | > 100 | > 100 |  |  |  |  |  |  |  |  |  |  |
| CC(C)OCc1cc(CN2CCN(c3cccc(Cl)c3)CC2)c(O)c2ncccc12 | 9.89 µM | 17.4 | 15.1 | 10.3 | 21.8 | 19 | 3.79 | 2.1 | 12.4 | 11.5 | 0.383 µM | 0.852 | 3.6 | 0.349 µM | 6.76 | 1.03 | 0.425 | 0.445 | 0.332 | 0.377 |
| N#Cc1c2ccccc2c2nnc3ccc(C(F)(F)F)cc3n12 | > 100 µM | > 100 |  | > 100 | > 100 | > 100 | > 100 | 39.8 | > 100 | > 100 | 71 µM | 66.7 |  | 59.9 µM | 61.8 | 33.5 | 58.4 | 16.1 | 27.3 | 27.6 |
| NS(=O)(=O)c1ccc(N=C2C(=O)Nc3ccccc32)cc1 | > 100 µM | > 100 | > 100 | > 100 | > 100 | > 100 | > 100 | > 100 | > 100 | > 100 |  |  |  |  |  |  |  |  |  |  |
| c1ccc(-c2cn(-c3ccccc3)c(-c3ccccc3)n2)cc1 | 7.06 µM | 3.83 | 39.7 | 18.7 | 20.4 | 34.9 | 3.27 | 28.3 | 28.7 | 5.76 | 2.75 µM | 1.95 | 19.8 | 3.54 µM | 4.79 | 16.6 | 1.76 | 14.9 | 15.4 | 1.59 |
| NCCCNc1nc2ccc(Cl)cc2c2c(=O)c3cc(F)ccc3sc12 | 6.65 µM | 3.32 | 14.3 | 3.73 | 4.94 | 21.2 | 3.12 | 30.2 | 4 | 3.42 | 2.35 µM | 1.74 | 3.38 | 1.74 µM | 2.12 | 5.61 | 1.72 | 13.6 | 1.94 | 1.68 |
| C=C(CN1CCN(c2ccccc2C(F)(F)F)CC1)c1ccc(C(=O)Nc2ccccc2N)cc1 | 0.546 µM | > 65.9 | > 100 | > 25.8 | 20.2 | > 100 | 16.3 | 9.83 | > 100 | 37.1 | 0.0728 µM | 3.4 | 11.8 | 1.54 µM | 4.09 | 5.93 | 3.09 | 3 | 7.19 | 4.48 |
| N#Cc1c2ccccc2c2nnc3ccccc3n12 |  | 91.8 |  | > 100 | > 100 |  | > 100 |  | 61.2 | 52.4 |  | 23.1 |  | 81.9 µM | 42.6 |  | 28 |  | 19.3 | 14.2 |
| CCN(CC)CC(O)COc1c(Br)c(Br)c(Br)c2c1OC(C)(C)C2 (configuration not stated) | 4.08 µM | 4.92 | 23.8 | 3.58 | 3.91 | 28.9 | > 100 | 3.24 | 16.4 | 4.06 | 1.96 µM | 2.26 | 7.68 | 1.73 µM | 1.82 | 9.04 | 3.85 | 1.82 | 4.94 | 1.92 |
| COc1ncc(-c2ccc3nccc(C#CCN4CCN(S(C)(=O)=O)CC4)c3c2)cc1NS(=O)(=O)c1ccc(F)cc1F | 2.49 µM | 2.23 | 5.72 | > 41.3 | 2.1 | 5.9 | 1.87 | 0.723 | 3.39 | 1.79 | 0.101 µM | 0.205 | 0.0207 | 0.665 µM | 0.0237 | 0.287 | 0.178 | 0.192 | 0.05 | < 0.01 |
| O=C(O)c1cn(C2CC2)c2cc(N3CCN(C(=O)Nc4nc(-c5ccc(Br)cc5)cs4)CC3)c(F)cc2c1=O | > 100 µM | > 100 |  | > 100 | > 100 | > 100 | > 100 |  | > 100 | > 100 | 1.23 µM | 4.13 |  | 1.51 µM | 2.6 | 1.43 | 1.17 |  | 3.11 | 2.7 |
| O=c1[nH]c(F)nc2c1ncn2C1OC(CO)C(O)C1O (configuration not stated) | > 100 µM | > 100 | > 100 | > 100 |  | > 100 | > 100 | > 100 | > 100 | > 100 | > 100 µM | > 100 | > 100 | > 100 µM |  | > 100 | > 100 | > 100 | > 100 | > 100 |
| O=C(/C=C/c1nnc2n(Cc3ccccc3)c(=O)c3c4c(sc3n12)CCCC4)c1ccccc1 | 4.69 µM and 0.699 µM |  | > 100 | > 100 |  | > 100 | 1.12 | > 100 |  | > 100 | 0.328 µM and 0.205 µM | 3.14 | > 100 | 0.902 µM and 0.199 µM |  | > 100 | 0.31 | > 100 | 3.9 |  |
| CS(=N)(=O)CCC(N)P(=O)(O)O (configuration not stated) |  | > 100 | > 100 | > 100 | > 100 | > 100 | > 100 | > 100 | > 100 | > 100 |  |  |  |  |  |  |  |  |  |  |
| CC1(C)OC2C(CO)OC(n3ccc(N)nc3=O)C2O1 (configuration not stated) | > 100 µM | > 100 | > 100 | > 100 |  | > 100 | > 100 | > 100 | > 100 | > 100 |  |  |  |  |  |  |  |  |  |  |
